Data as given in US12298308B2, “Neoadjuvant chemotherapy induces breast cancer metastasis through a TMEM-mediated mechanism” (Albert Einstein College of Medicine, priority 2017, dated 2025).

How the values were obtained:
breast tumors = assay: Tumor growth in mouse breast carcinoma models; format: in vivo; conditions: 10 mg/Kg paclitaxel every five days, three times; vs non-treated controls
Source text: Herein, the possibility was examined that neoadjuvant paclitaxel promotes TMEM assembly and cancer cell dissemination and metastasis. This hypothesis was investigated in the following breast carcinoma models: (i) transgenic MMTV-PyMT mice bearing spontaneous breast tumors, (ii) FVB mice transplanted orthotopically with tumors from MMTV-PyMT donors, and (iii) two patient-derived xenografts (PDX), HT17 and HT33, developed previously in our laboratory (31). […] Treatment of all groups began at the early carcinoma stage (tumor size of ˜0.3 cm) when there is minimal or absent necrosis. It was decided to work with the early-stage PyMT mouse mammary carcinoma model because it more accurately reflects clinically relevant scenarios where most women present with small tumors of <2 cm (32). At the end of treatment all tumors were histologically classified as invasive carcinomas.
(§1) Drug Administration. The following drugs were administered in mice: Paclitaxel was given at 10 mg/Kg i.v every 5 days for 2 weeks; Doxorubicin was given at 5 mg/Kg i.v. every 5 days for 2 weeks; Cyclophosphamide was given at 120 mg/Kg i.p. only once; Rebastinib was given at 10 mg/Kg per os, every 3-4 days for 4 weeks.
Animals and Animal Procedures. MMTV-PyMT mice were bred in-house at the Albert Einstein College of Medicine (AECOM). Generation of MMTV-PyMT Mena^−/− has been described previously (28). […]

[1] = test system: Tie2^hi/Vegf^hi macrophages; assay: Macrophage infiltration by multi-channel immunofluorescence (Iba1, Cd31, Tie2, Vegf); format: in vivo, mouse
Source text: The functional TMEM sites contain Tie2^hi/Vegf^hi macrophages and invasive tumor cells in perivascular regions (1), and it was independently shown that chemotherapy may promote mobilization of such Tie2^hi monocyte progenitors in primary tumors (8, 10). The Tie2^hi/Vegf^hi macrophage subpopulation was quantified herein using multi-channel immunofluorescence (IF) imaging (FIGS. 1D-F) (10, 14, 34). FIG. 1E illustrates a representative IF image of a Tie2^hi/Vegf^hi macrophage quantified using Cd31, Iba1, Vegf and Tie2 staining.
as §1
Animals and Animal Procedures. MMTV-PyMT mice were bred in-house at the Albert Einstein College of Medicine (AECOM). Generation of MMTV-PyMT Mena^−/− has been described previously (28). CFP- or Dendra2-labeled mammary carcinoma cells were generated on the FVB background by co-injection of Tg(MMTV-iCRE)1jwp together with Tg(PCAG-loxp-CATstop-loxp-CFP) or Tg(loxP-stop-loxP-PDendra2)jwp plasmids, respectively, by conventional methods in the Albert Einstein Transgenic Mouse Facility. All syngeneic transplantation models were generated through orthotopic transplantation of 1 mm×1 mm tumor chunks, using tumors of 1 cm-diameter from 12-16-week old MMTV-PyMT mena−/− or mena+/+ donor mice into 5-6 week-old FVB recipients. Tumor chunks were implanted on the fourth mammary pad on the left side. The generation of the ER^− HT17 and ER^+ HT33 patient-derived xenografts has been described previously (31). Animal handling and associated procedures were approved by the Institutional Animal Care and Use Committee (IACUC). Additional information is detailed in Supplementary Methods.
Immunofluorescence. Slides were deparaffinized by melting at 60° C. in an oven equipped with a fan for 20 minutes, followed by 2× xylene treatment for 20 minutes. Slides were rehydrated and antigen retrieval was done in 1 mM EDTA (pH 8.0) or 1× citrate buffer (pH 6.0) (Diagnostic BioSystems) at 97° C. for 20 minutes in a conventional steamer. Endogenous peroxidase was blocked by using 0.3% hydrogen peroxide in water, followed by incubation of slides in a blocking buffer solution (10% FBS, 1% BSA, 0.0025% fish skin gelatin in 0.05% PBST) for 60 minutes at room temperature. The following primary antibodies were used in different combinations, depending on the experiment: chicken anti-Mena^INV (0.25 ug/mL, generated in-house in the lab of John S. Condeelis), rabbit anti-Cd31 (1:400; 77699s; Cell Signaling), rabbit anti-Vegf (1:2,000; Rb 9031-PO-A; Thermo), rat anti-Tie2 (1:100; 16-5987-82; eBioscience), rabbit anti-Iba1 (1:6,000; 019-19741; Wako), rat anti-endomucin (1:500; sc-65495; Santa Cruz), rabbit anti-TMR (1:1,000; A-6397; Life Technologies). Secondary antibody treatment was performed using HRP-conjugated antibodies, and was followed by tyramide signal amplification (TSA), using the Perkin Elmer; Opal™ 4-color Fluorescent IHC kit, according to the manufacturer's directions. All slides were imaged on the Pannoramic 250 Flash II digital whole slide scanner, using a 20×0.75NA objective lens. Image analysis was performed in ImageJ, detailed in Supplementary Methods.

TMEM = assay: Extravascular Dextran-TMR in fixed tumor sections (multichannel IF); format: in vivo, mouse
Description: In a second independent validation experiment, a group of vehicle- or paclitaxel-treated mice received an i.v injection of Dextran-TMR for 1 hour and then sacrificed and evaluated for vascular permeability in fixed tumor sections (FIG. 2A). Multichannel IF staining included endomucin as a blood vessel exclusion mask and a specific anti-TMR antibody for assessing dextran leakage. A corresponding TMEM IHC staining section was co-aligned to evaluate the presence/absence of TMEM in each vascular profile that presented with vascular leakage. […] For quantification purposes, ˜20-30 vascular profiles were selected for each mouse, based on tissue size, degree of vascularization and quality of endomucin staining. […]
Paclitaxel Increases Metastatic Dissemination of Breast Tumors—To assess if paclitaxel treatment promotes tumor cell dissemination and metastatic incidence, we first quantified and compared incidence and frequency of bursting in mice treated with vehicle or paclitaxel, using IVI (FIGS. 3A-C). […] The same conclusions were reached when frequency of bursting was normalized to the number of TMEM sites, as measured in each field. […] In addition to IVI, extravascular dextran area was quantified and compared as % normalized to the blood vessel area in fixed tumors of mice treated with either vehicle or paclitaxel, using multichannel IF. […]

MDA-MB-213 xenografts = conditions: paclitaxel-treated vs control MDA-MB-213 xenografts; cited from earlier work
[2] = Mena^-/- PyMT-CFP transplanted tumors

CC(=O)O[C@H]1C(=O)[C@@]2(C)[C@H]([C@H](OC(=O)c3ccccc3)[C@]3(O)C[C@H](OC(=O)[C@H](O)[C@@H](NC(=O)c4ccccc4)c4ccccc4)C(C)=C1C3(C)C)[C@]1(OC(C)=O)CO[C@@H]1C[C@@H]2O [paclitaxel]
tumor growth (breast tumors): delayed tumor growth
absolute number of Iba1^+ cells ([1]; HT17-xenograft, entire tissue or perivascular niche, p<0.001): significantly increased
perivascular Iba1^+ macrophage infiltration [1, 2]: increased
perivascular Tie2^hi/Vegf^hi Iba1^+ macrophage infiltration [1, 2]: increased
perivascular Tie2^hi/Vegf^hi macrophage subpopulation ([1]; PyMT-spontaneous model): significant increase
percentage of macrophage-specific Iba1^+ area ([1]; all transplantation models, p<0.01): significant increase
proportion of Tie2^hi/Vegf^hi macrophages among all Iba1^+ cells ([1]; paclitaxel treatment): increased
density of perivascular Tie2^hi/Vegf^hi macrophages ([1]; single agent vs vehicle, PyMT-transplantation and HT17 xenograft): significant increases
density of Tie2^hi/Vegf^hi macrophages ([1]; vs vehicle-treated controls, entire tissue or perivascular niches, p<0.001): significantly higher
vascular profiles with extravascular dextran co-localized with at least 1 TMEM (TMEM; fixed tumor sections, Dextran-TMR i.v. for 1 hour): 96-98%
extravascular dextran area normalized to blood vessel area, fold vs vehicle-treated (TMEM; fixed tumors, p<0.05): 3 fold
Mena expression (MDA-MB-213 xenografts): significantly increased
Mena^INV expression (MDA-MB-213 xenografts): significantly increased
